In data set [1] the target is self-dimerization. Particulars: ref [9][20]; read-out: dimerization Kd in solution; cited from earlier work. The method, then:
To test this hypothesis, we analysed an hHP1β chimera where the CSD was replaced with an unrelated dimerization module. We used glutathione S-transferase (GST), as it is known to form dimers of similar strength as hHP1β WT in solution (Kd<1 nM)[9][20].

Data set [2] in a line: Multimerization beyond dimer. The class given is physicochemical. The settings on record: dynamic light scattering, SAXS, protein cross-linking, nuclear magnetic resonance.
Data set [3] concerns H3K9me3 oligonucleosomal templates containing tailless H2A, H2B or H4. Description: Chromatin sedimentation (clustering), H3K9me3 oligonucleosomes with tailless histones. The class given is biochemical, Xenopus laevis. The settings on record: 150 mM NaCl, n=3. How it is done:
Figure 3 hHP1β clusters oligonuclesomal arrays in dependence of H3K9me3. (a) Oligonucleosomes (2.5 nM) were incubated with increasing concentrations of hHP1β WT or I161A at 150 mM NaCl. DNA remaining in the supernatant after centrifugation was incubated with EtBr and measured by fluorescence reading. Data were normalized to amounts in absence of added protein. Averages of three independent experiments are plotted; error bars represent s.d.; n=3. (b) Analysis of the hydrodynamic radius of oligonucleosomes (10 nM; DNA labelled with ATTO 610) in the presence of increasing concentrations of hHP1β WT or I161A by FCS at 150 mM NaCl. For details on experimental setup see Supplementary Fig. 3. Error bars represent s.d.; n=3. (c) Oligonucleosomes were reconstituted after mixing H3K9me0 and H3K9me3 octamers at different ratio. […] (d) Precipitation behaviour of oligonucleosomes (2.5 nM) was analysed at different concentrations of NaCl with hHP1β WT at saturating concentration. […] Precipitated material was analysed by western blotting. […] Complexes were fixed with 0.05% (v/v) glutaraldehyde, spotted on mica surfaces and analysed by scanning force microscopy. […] (h) Quantification of results representatively shown in g according to the classification on the top: A, extended; B, partially condensed; C, fully condensed; D; aggregates; n>50 for each condition. […]

Data set [4] concerns H3K9me0 oligonucleosomes. As to the kind of experiment: Fluorescence correlation spectroscopy (FCS), H3K9me0 oligonucleosomes. In kind it is biochemical, Xenopus laevis. Particulars: 150 mM NaCl. How it is done:
All fluorescence measurements were performed with a pulsed custom-built mode-locked Ti:Sa-Laser and a confocal two-photon fluorescence microscope setup. Detailed description of the experimental setup and the measurement procedure are available on request. In all cases 10 nM of the acceptor labelled species, ATTO 610-labelled nucleosomal array, was incubated with 20–200 μM of recombinant hHP1β in 10 μl of 10 mM triethanolamine HCl (pH 7.5), 0.1 mM EDTA, 150 mM NaCl at 4°C. For each sample the fluorescence correlation curve, fluorescence intensity and anisotropy values were determined at 22°C. Every data point was averaged over a minimum of 15 single measurements of 10 s each. […]
The fluorescence data were analysed using the correlation function [drawing 1] , and the equation for free diffusion of particles [drawing 2] , where I(t) is the fluorescence intensity measured at time t, N the particle number, τD the diffusion time, and r0=0.25 the axis ratio of the focal region, considering the dimensions of a Gaussian beam waist. […]
(b) Results of stepwise precipitation and resolubilization after clustering H3K9me3-oligonucleosomes by hHP1β at different concentrations. DNA remaining in the supernatant after centrifugation was incubated with EtBr and measured by fluorescence reading. […]
(c) Instrumental setup used for two -photon fluorescence correlation spectroscopy (FCS). […]

“Also recorded” adds a separate entry of the source.

With “hHP1β WT: recombinant human heterochromatin protein 1β (GenBank NM_001127228), 185 aa”, the Kd in data set [1] was less than 1 nM. Besides, in data set [2], the “multimerization beyond CSD-mediated dimerization” value is given as “failed to detect any multimerization of hHP1β beyond CSD-mediated dimerization”. Besides, in data set [3], the “clustering of oligonucleosomes with tailless histones” value is reported as “clustered H3K9me3 oligonucleosomes containing tailless H2A or H2B as efficiently as H3K9me3-oligonucleosomes containing WT core histones; also recorded: the effect on H3K9me3 oligonucleosomes containing tailless H4 was impaired”. Moreover, the “assemblies with H3K9me0 oligonucleosomes (FCS)” value in data set [4] is listed as “larger assemblies only appeared at high hHP1β WT concentrations”.

In general, Kd refers to the free concentration of one partner at which half of the binding sites on the other are occupied at equilibrium, for simple one-to-one binding.
